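Briefly, cells in 96-well plates were exposed to five compound concentrations for 48 h, and endpoints were estimated by linear interpolation. GI50 is the concentration that inhibits growth by half.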 Calls of active or inactive are those of the source. Cut-off read from the data, not from the text of the source: active = GI50 up to about 1.1 µM and inactive = higher.
Columns and labels:
Experiment in all cases: NCI anticancer screen, dose series, 48 h
MDA-N = test system: MDA-N
A498 = test system: A498
SF-268 = test system: SF-268
CAKI-1 = test system: CAKI-1
HCT-15 = test system: HCT-15
UO-31 = test system: UO-31
Malme-3M = test system: Malme-3M
SN12C = test system: SN12C
NCI-H23 = test system: NCI-H23
MOLT-4 = test system: MOLT-4
HCC 2998 = test system: HCC 2998
HCT-116 = test system: HCT-116
RXF 393 = test system: RXF 393
DU-145 = test system: DU-145
NCI-H226 = test system: NCI-H226
EKVX = test system: EKVX
U-251 = test system: U-251
OVCAR-4 = test system: OVCAR-4
NCI-H460 = test system: NCI-H460
MCF7 = test system: MCF7

Structure (SMILES) | GI50 (MDA-N) | GI50 (A498) | GI50 (SF-268) | GI50 (CAKI-1) | GI50 (HCT-15) | GI50 (UO-31) | GI50 (Malme-3M) | GI50 (SN12C) | GI50 (NCI-H23) | GI50 (MOLT-4) | GI50 (HCC 2998) | GI50 (HCT-116) | GI50 (RXF 393) | GI50 (DU-145) | GI50 (NCI-H226) | GI50 (EKVX) | GI50 (U-251) | GI50 (OVCAR-4) | GI50 (NCI-H460) | GI50 (MCF7)
O=c1[nH]nc(-c2ccccc2)n1/N=C/c1ccncc1 | > 100 µM (inactive) | 24.9 µM (inactive) | > 100 µM (inactive) | > 100 µM (inactive) | > 100 µM | 46.3 µM (inactive) | > 100 µM (inactive) | > 100 µM (inactive) | > 100 µM (inactive) | > 100 µM (inactive) | > 100 µM (inactive) | 53.6 µM (inactive) | 62.5 µM (inactive) | > 100 µM (inactive) | 97.7 µM (inactive) | > 100 µM (inactive) | > 100 µM (inactive) | > 100 µM (inactive) | > 100 µM (inactive) | > 100 µM (inactive)
O=C1CCCc2cc3c(cc21)CC1(C3)Cc2ccc3c(c2C1)C(=O)CCC3 (centres undefined) | 5.18 µM (inactive) | 41.2 µM (inactive) | 21.9 µM (inactive) | 10.5 µM (inactive) | 45.2 µM | 32.4 µM (inactive) | 9.4 µM (inactive) | 23.6 µM (inactive) | 22.5 µM (inactive) | 4.12 µM (inactive) | 71.8 µM (inactive) | 12.2 µM (inactive) | 37.1 µM (inactive) | 39.8 µM (inactive) | 6.38 µM (inactive) | 46.7 µM (inactive) | 39.2 µM (inactive) | 13.9 µM (inactive) | 26.5 µM (inactive) | 12.2 µM (inactive)
O=C(/C=C1/Nc2ccc([N+](=O)[O-])cc2N/C1=C/C(=O)c1ccc(Cl)cc1)c1ccc(Cl)cc1 | > 100 µM (inactive) | 10.1 µM (inactive) | 60.5 µM (inactive) | > 100 µM (inactive) | 24.2 µM | > 100 µM (inactive) | > 100 µM (inactive) | 17.7 µM (inactive) | 11.6 µM (inactive) | > 100 µM (inactive) | > 100 µM (inactive) | 15 µM (inactive) | 66.5 µM (inactive) | > 100 µM (inactive) | > 100 µM (inactive) | > 100 µM (inactive) | > 100 µM (inactive) | > 100 µM (inactive) | 42.9 µM (inactive) | 49.5 µM (inactive)
CN(C)c1ccc(-c2ccc(N(C)C)c3n[se]nc23)c2n[se]nc12 | > 100 µM (inactive) | > 100 µM (inactive) | > 100 µM (inactive) | > 100 µM (inactive) | > 100 µM | > 100 µM (inactive) | > 100 µM (inactive) | > 100 µM (inactive) | > 100 µM (inactive) | > 100 µM (inactive) | > 100 µM (inactive) | > 100 µM (inactive) | > 100 µM (inactive) | > 100 µM (inactive) | > 100 µM (inactive) | > 100 µM (inactive) | > 100 µM (inactive) | > 100 µM (inactive) | > 100 µM (inactive) | > 100 µM (inactive)
Cn1c(=O)nc2n(CCO)ccnc-2c1=O | > 100 µM (inactive) | > 100 µM (inactive) | > 100 µM (inactive) | > 100 µM (inactive) | > 100 µM | > 100 µM (inactive) | > 100 µM (inactive) | > 100 µM (inactive) | > 100 µM (inactive) | > 100 µM (inactive) | > 100 µM (inactive) | > 100 µM (inactive) | > 100 µM (inactive) | > 100 µM (inactive) | > 100 µM (inactive) | > 100 µM (inactive) | > 100 µM (inactive) | > 100 µM (inactive) | > 100 µM (inactive) | > 100 µM (inactive)
O=C1C=CC2(C=C1)CCC(=O)O2 | 27.9 µM (inactive) | 36.3 µM (inactive) | 12.1 µM (inactive) | 5.87 µM (inactive) | 7.52 µM | 15.1 µM (inactive) | 5.58 µM (inactive) | 16.1 µM (inactive) | 14.2 µM (inactive) | > 100 µM (inactive) | 14.2 µM (inactive) | 14.8 µM (inactive) | 14.6 µM (inactive) | 15.5 µM (inactive) | 19.2 µM (inactive) | 17.9 µM (inactive) | 7.18 µM (inactive) | 14.8 µM (inactive) | 14.3 µM (inactive) | 13.4 µM (inactive)
Cc1nnc2n1-c1ccccc1C(=S)N1CSCC21 (centres undefined) | > 100 µM (inactive) | > 100 µM (inactive) | > 100 µM (inactive) | > 100 µM (inactive) | 79.3 µM | > 100 µM (inactive) | > 100 µM (inactive) | > 100 µM (inactive) |  | > 100 µM (inactive) | > 100 µM (inactive) | > 100 µM (inactive) | > 100 µM (inactive) | > 100 µM (inactive) | > 100 µM (inactive) | > 100 µM (inactive) | > 100 µM (inactive) | > 100 µM (inactive) | > 100 µM (inactive) | > 100 µM (inactive)
O=C(O)C/N=C(\C(=N\CC(=O)O)c1ccccc1)c1ccccc1 | > 100 µM (inactive) | > 100 µM (inactive) | > 100 µM (inactive) | > 100 µM (inactive) | > 100 µM | 90.2 µM (inactive) | > 100 µM (inactive) | > 100 µM (inactive) | > 100 µM (inactive) | > 100 µM (inactive) | > 100 µM (inactive) | > 100 µM (inactive) | > 100 µM (inactive) | > 100 µM (inactive) | > 100 µM (inactive) | > 100 µM (inactive) | > 100 µM (inactive) | > 100 µM (inactive) | > 100 µM (inactive) | > 100 µM (inactive)
CC(=O)NCCC1CN(C(=O)/C=C/I)c2ccccc21 (centres undefined) | 3.08 µM (inactive) | 6.98 µM (inactive) | 9.08 µM (inactive) | 4.75 µM (inactive) | 4.93 µM | 2.89 µM (inactive) | 13 µM (inactive) | 3.93 µM (inactive) | 11.9 µM (inactive) | 3.79 µM (inactive) | 15.9 µM (inactive) | 4.01 µM (inactive) | 5.21 µM (inactive) | 15.7 µM (inactive) | 14.5 µM (inactive) | 15.4 µM (inactive) | 10.8 µM (inactive) | 1.96 µM (inactive) | 4.62 µM (inactive) | 0.308 µM (active)
CC1=Nc2ccccc2/C1=C\c1c(C)[nH]c2ccccc12 | 6.75 µM (inactive) | 17.5 µM (inactive) | 11.2 µM (inactive) | 13.8 µM (inactive) | 12.9 µM | 13.6 µM (inactive) | 14.1 µM (inactive) | 21.4 µM (inactive) | 13 µM (inactive) | 3.4 µM (inactive) | 15.5 µM (inactive) | 11.4 µM (inactive) | 10.6 µM (inactive) | 15.8 µM (inactive) | 15.2 µM (inactive) | 12.2 µM (inactive) | 15.9 µM (inactive) | 12.4 µM (inactive) | 17.8 µM (inactive) | 4.49 µM (inactive)
COc1ccc(Cl)cc1NC(=O)O/N=C(\Cl)C(C)C | 11.4 µM (inactive) | 21.5 µM (inactive) | 21.5 µM (inactive) | 1.82 µM (inactive) | 2.64 µM | 13.8 µM (inactive) | 1.94 µM (inactive) | 8.49 µM (inactive) | 17.6 µM (inactive) | 2.03 µM (inactive) | 16.4 µM (inactive) | 7.19 µM (inactive) | 3.76 µM (inactive) | 19.3 µM (inactive) | 12.7 µM (inactive) | 3.74 µM (inactive) | 26.4 µM (inactive) | 17.2 µM (inactive) | 17.1 µM (inactive) | 6.71 µM (inactive)
CCCCCCCCCCCCCCCCNc1nc(=O)n(C2OC(C)C(O)C2O)cc1F (centres undefined) | 19.1 µM (inactive) | 19.5 µM (inactive) | 20 µM (inactive) | 21.1 µM (inactive) | 14.9 µM | 14 µM (inactive) | 23.1 µM (inactive) | 21.9 µM (inactive) | 18 µM (inactive) | 20.2 µM (inactive) | 16.9 µM (inactive) | 18.4 µM (inactive) | 20.7 µM (inactive) | 19.5 µM (inactive) | 21 µM (inactive) | 18.4 µM (inactive) | 23.7 µM (inactive) | 22.1 µM (inactive) | 17 µM (inactive) | 17 µM (inactive)
COc1cc2c(cc1OCCCCCN1C(=O)c3cccc4cccc(c34)C1=O)N=C[C@@H]1CCCN1C2=O | 0.207 µM (active) | 0.31 µM (active) | 0.207 µM (active) | 0.208 µM (active) | 0.331 µM | 0.153 µM (active) | 0.163 µM (active) | 0.336 µM (active) | 0.222 µM (active) | 0.0743 µM (active) | 0.3 µM (active) | 0.215 µM (active) | 0.0647 µM (active) | 0.255 µM (active) | 0.177 µM (active) | 0.492 µM (active) | 0.249 µM (active) | 0.248 µM (active) | 0.316 µM (active) | 0.181 µM (active)
CN1CC2=C(OC(N)=C(C#N)C2c2cccs2)/C(=C/c2cccs2)C1 (centres undefined) | 5.64 µM (inactive) | 21.8 µM (inactive) | 13.5 µM (inactive) | 38.8 µM (inactive) | 15.5 µM | 34 µM (inactive) | 8.65 µM (inactive) | 34.8 µM (inactive) | 7.18 µM (inactive) | 2.43 µM (inactive) | 25.6 µM (inactive) | 8.43 µM (inactive) | 10.1 µM (inactive) | 23.4 µM (inactive) | > 74.1 µM (inactive) | 6.01 µM (inactive) | 8.59 µM (inactive) | 5.52 µM (inactive) | 17.7 µM (inactive) | 0.223 µM (active)

— ChEMBL document CHEMBL1201862, “PubChem BioAssay data set” (2004)
